Where two headings read alike, the source gives them in different places.
Assays:
primary cortical neurons = assay: cells; format: cell-based, mouse; settings: for Protection against hemin-induced toxicity (in words): MTT
Description: Primary cortical neuronal cultures: Primary cortical neurons were collected from embryonic (E15) CD1 mice. The cortices of the mice were dissected, homogenized, and plated in minimum essential medium containing 10% fetal bovine serum (FBS), 5% horse serum, and 1% penicillin/streptomycin in 96-well plates, 6-well plates, or 10-cm dishes. The neurons were maintained at 37° C. with 5% CO2. All experiments were conducted 24 hours after plating.
In vitro ICH model: Ferroptosis is a type of programmed cell death that is dependent on iron, and is characterized by the accumulation of lipid peroxides. Ferroptosis is genetically and biochemically distinct from other forms of regulated cell death such as apoptosis. Ferroptosis is initiated by the failure of the glutathione-dependent antioxidant defenses, resulting in unchecked lipid peroxidation and eventual cell death.
Cell death was induced in primary cortical neurons by treating the neurons with hemin, a blood breakdown product. For the neuroprotection studies, cells were treated with hemin (100 μM) in the presence of NAC (0.1 mM to 1mM), 6-hydroxy-2,5,7,8-tetramethylchroman-2-carboxylic acid (trolox; 0.1 μM to 100 μM), β-carotene (0.1 μM to 100 μM) α-lipoic acid (0.01 mM to 2 mM), glutathione ethyl ester (1 mM to 10 mM), oxothiazolidine-4-carboxylate (1 mM to 10 mM), cystamine (0.1 μM to 10 μM), or nordihydroguaiaretic acid (0.1 μM to 10 μM). Cell viability was analyzed 24 h after treatment. The cells were rinsed with warm phosphate-buffered saline (PBS) and assessed using an MTT assay. The fidelity of the MTT assays in measuring viability was verified by calcein-AM/ethidium homodimer-1 staining (Live/Dead assay).
The ability of NAC to protect cells was investigated in a hemin model of hemorrhagic stroke. The in vitro model of ICH involved the administration of hemin, a breakdown product of hemoglobin from lysed blood, to trigger cell death. Treatment of primary cortical neurons with 100 μM hemin induced widespread cell death through a ferroptotic mechanism, which was quantified with MTT and qualitatively observed using live/dead staining. Living cells were labeled with calcein-AM, and dead cells were labeled with ethidium homodimer. […] Scale bars: 100 μm.
A systematic pharmacological screening of oxidized lipid species inhibitors in the context of hemin-induced cell death was performed in primary cortical neurons. Primary cortical neurons were co-treated with hemin and a non-specific or enzymatic lipid peroxidation inhibitor. The MTT assays were performed 18 h following the co-treatment.

[1] = system: collagenase-induced mouse model of ICH; assay: In vivo collagenase-induced mouse model of ICH (Fluoro-Jade staining, corner task, adhesive tape removal task, hematoma size)
Description: In vivo collagenase-induced mouse model of ICH: Male C57BL/6 mice (8 to 10 weeks of age) or mice (10 to 12 weeks of age) were anesthetized with isoflurane (2% to 5%) and placed on a stereotaxic frame. During the procedure, the animal's body temperature was maintained at 37° C. with a homeothermic blanket. 1 mL of collagenase (0.075 IU) was infused into the right striatum at a flow rate of 0.120 μL/min using a Nanomite® syringe pump and a syringe. Relative to the bregma point, the stereotaxic coordinates of the injection were: lateral, −0.20; anteroposterior, 0.62; and dorsoventral, −0.40. In control animals, 1 mL of saline was infused. The treatment group received NAC (75 mg/kg or 300 mg/kg in normal saline, I.P.) once a day for 7 days starting at 2 h after collagenase infusion. For combinatorial studies, NAC (40 mg/kg, I.P.) and PGE 2 (10 μM, ICV) were administered to the mice 2 h after the collagenase injection, and then NAC (40 mg/kg) was administered once daily for 7 days. The control groups received the vehicle (normal saline) alone. The animals were randomized to sham or ICH groups. The identities of the mice that received vehicle or NAC were masked to surgeons who performed the experiments. […] Proper postoperative care was provided until the animals recovered completely.
Behavioral analysis: The corner task assessed integrated sensorimotor function in the stimulation of vibrissae (sensory neglect) and rearing (motor response). Mice were placed between two cardboard pieces that formed a corner with a 30° angle. While maintaining the 30° angle, the boards were gradually moved toward the mouse until the mouse approached the corner, reared upward, and turned 180° to face the open end. The direction (left or right) in which the mouse turned was recorded for each trial. Ten trials were performed for each mouse.
For the sensory neglect task (adhesive tape removal task), adhesive tape was placed on the planter region of the forward paw (right and left) of each mouse. The time from which the tape was applied to when the mouse successfully removed the tape was recorded for each paw. A maximum of 300 s for each paw was allowed.
Fluoro-Jade® B staining: Neurodegeneration of cells was assessed in mice with collagenase-induced ICH using Fluoro-Jade® B staining. 40 μM brain sections were mounted on gelatin-coated slides and dried at room temperature overnight. The sections were immersed in a graded series of alcohol solutions before being immersed in a 0.06% potassium permanganate (KMnO4) solution for 15 min. Sections were washed with water before being immersed in a 0.001% Fluoro-Jade® staining solution with gentle shaking in the dark for 30 min. The sections were then washed with water and dried overnight at room temperature in the dark before being dehydrated and coverslipped with DPX. Fluoro-Jade® B staining was examined within perihematoma or hematoma regions using a fluorescence microscope. Quantification of Fluoro-Jade® B staining was performed using three brain sections (anterior to posterior of hematoma) using Metamorph analysis.
The vehicle or NAC was then administered daily up to 7 days following the ictus. Neuronal loss was determined using a non-specific marker of neurodegeneration, Fluoro-Jade® staining. […] Mouse behavior was assessed using a corner task (spatial neglect) and an adhesive tape removal task (sensory neglect). Mouse behavior was assessed on day 1, 3, and 7 after the induction of ICH.

recombinant ALOX5 = molecular target: T1, recombinant ALOX5 (Homo sapiens, UniProt P09917); assay: Lipoxygenase UV/Vis-based IC50 assay with recombinant ALOX5; format: biochemical; settings: test tube assay
T1 sequence (P09917 1-674): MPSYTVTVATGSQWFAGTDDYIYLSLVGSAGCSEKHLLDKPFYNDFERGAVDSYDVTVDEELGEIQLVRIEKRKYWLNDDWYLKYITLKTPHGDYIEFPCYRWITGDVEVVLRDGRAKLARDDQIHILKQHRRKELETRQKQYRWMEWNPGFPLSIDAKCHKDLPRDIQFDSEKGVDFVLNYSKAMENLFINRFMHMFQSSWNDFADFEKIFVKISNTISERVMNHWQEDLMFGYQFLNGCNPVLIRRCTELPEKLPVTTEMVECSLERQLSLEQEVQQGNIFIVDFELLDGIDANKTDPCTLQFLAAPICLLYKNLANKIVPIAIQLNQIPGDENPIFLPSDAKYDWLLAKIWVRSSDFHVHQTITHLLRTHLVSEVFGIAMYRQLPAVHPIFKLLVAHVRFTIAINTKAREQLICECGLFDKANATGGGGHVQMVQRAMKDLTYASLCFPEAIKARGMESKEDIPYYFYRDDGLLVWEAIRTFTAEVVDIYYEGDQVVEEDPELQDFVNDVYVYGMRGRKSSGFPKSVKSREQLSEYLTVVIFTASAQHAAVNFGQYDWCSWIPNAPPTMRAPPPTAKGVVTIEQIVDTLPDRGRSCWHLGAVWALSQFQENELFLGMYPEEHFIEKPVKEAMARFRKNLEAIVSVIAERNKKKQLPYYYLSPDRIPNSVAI
Description: Lipoxygenase UV/Vis-based IC50 assay: Inhibition potencies were determined by following the formation of conjugated diene products, 5-HpETE [ε=27000 M^−1 cm^−1 for AA turnover) at 234 nm using a UV/Vis spectrophotometer. All reaction mixtures were 2 mL in volume, and the reaction mixtures were constantly stirred using a magnetic stir bar at room temperature (23° C.). All reactions were carried out in a buffer containing 200 μM ATP and 10 μM AA. The AA concentration of a sample was verified by full turnover with soybean-1 lipoxygenase and quantifying the product concentration. Inhibitors were stored in DMSO at −20° C. Enzymatic reactions were initiated by adding approximately 100 nM-300 nM ammonium sulfate-precipitated wildtype enzyme. IC50 values were obtained by determining the enzymatic rate at a minimum of five inhibitor concentrations, plotting the enzymatic rate against inhibitor concentration, and performing a hyperbolic saturation curve fit. Inhibitor concentrations were assayed in duplicate or triplicate.
Significance was determined by two-way ANOVA and Bonferroni's post hoc test.

lipid protein adducts = assay: Hemin-induced lipid protein adduct formation (Bt-AA, streptavidin-HRP Western blot) in primary neurons; format: cell-based, mouse; settings: for AA-protein adduct formation: non-protective doses: NAC 0.1 mM, vitamin E 1 μM, zileuton 1 μM; for Lipid protein adduct formation: protective doses: NAC 1 mM, vitamin E 10 μM, zileuton 10 μM
Description: Electrophilic attack by ALOX5 products could alter cellular protein-mediated signaling to trigger cell death. Arachidonic acid (AA) tagged with biotin (Bt-AA) was used to monitor the formation of covalent protein adducts. To test whether hemin was sufficient to catalyze the formation of protein-reactive lipid species, primary neurons were treated with hemin at concentrations of 5 μM-50 μM for 4 h. Lipid protein adducts were detected by Western blots probed with Streptavidin-HRP. Bt-AA incorporation into protein increased with increasing concentrations of hemin, and significant lipid protein adducts were detected at 50 μM hemin. […] The blot is representative from replicates of three experiments. The arrow indicates the decrease in lipid protein adduct formation.

[2] = primary cortical neurons, 100 μM hemin
[3] = Mus musculus, Primary cortical neuron, protection from 100 μM hemin, MTT (Table 2), read-out: EC50
[4] = protection from 100 μM hemin, MTT (Table 2), read-out: EC50
[5] = NAC 40 mg/kg i.p. and/or PGE2 10 μM ICV, days 1, 3, 7

CC(=O)Oc1ccccc1C(=O)O [Aspirin]
Protection against hemin-induced toxicity (in words) (primary cortical neurons; [2]): failed to protect against hemin toxicity

CCCCS(=N)(=O)CCC(N)C(=O)O (centres unmarked) [BSO, buthionine sulfoximine]
Effect on NAC-induced protection from hemin (primary cortical neurons; co-treatment with NAC and BSO): reversed NAC-induced protection

CC(=O)N(O)C/C=C/c1cccc(Oc2ccccc2)c1 [BW A4C]
EC50 (primary cortical neurons; 100 μM hemin, primary cortical neurons, read-out: EC50 for reduction of hemin-induced toxicity/ferroptosis): 5 µM

CC(C=Cc1cccc(Oc2ccc(F)cc2)c1)N(O)C(N)=O (centres unmarked) [BW B70]
Protection against hemin-induced toxicity (in words) (primary cortical neurons; [2]): significantly reduced hemin-induced toxicity

NCCSSCCN [Cystamine]
EC50 (primary cortical neurons; [3]): 7.5 µM | Protection against hemin-induced toxicity (in words) (primary cortical neurons; [2]): prevented hemin-induced death as effectively as NAC

CCOC(=O)CNC(=O)[C@H](CS)NC(=O)CC[C@H](N)C(=O)O [Glutathione ethyl ester]
Protection against hemin-induced toxicity (in words) (primary cortical neurons; [2]): prevented hemin-induced death as effectively as NAC | EC50 (primary cortical neurons; [4]): 2500 µM

COc1ccc2c(c1)c(CC(=O)O)c(C)n2C(=O)c1ccc(Cl)cc1 [Indomethacin]
Protection against hemin-induced toxicity (in words) (primary cortical neurons; [2]): failed to protect against hemin toxicity

C#CCOc1ccccc1CCCCCC(=O)NS(C)(=O)=O [MS-PPOH]
Protection against hemin-induced toxicity (in words) (primary cortical neurons; [2]): failed to protect against hemin toxicity

CCC(=O)NC(c1cccs1)c1cc([N+](=O)[O-])c2cccnc2c1O (centres unmarked) [NCTT-956]
Protection against hemin-induced toxicity (in words) (primary cortical neurons; [2]): failed to protect against hemin toxicity

CC(Cc1ccc(O)c(O)c1)C(C)Cc1ccc(O)c(O)c1 (centres unmarked) [Nordihydroguaiaretic acid]
EC50 (primary cortical neurons; [3]): 5 µM | Protection against hemin-induced toxicity (in words) (primary cortical neurons; [2]): prevented hemin-induced death as effectively as NAC

O=C1NC(C(=O)O)CS1 (centres unmarked) [Oxothiazolidine-4-carboxylate]
Protection against hemin-induced toxicity (in words) (primary cortical neurons; [2]): prevented hemin-induced death as effectively as NAC | EC50 (primary cortical neurons; [4]): 2500 µM

c1ccc2c(c1)SCc1c-2[nH]c2ccccc12 [PD146176]
Protection against hemin-induced toxicity (in words) (primary cortical neurons; [2]): failed to protect against hemin toxicity

CCCCC[C@H](O)/C=C/[C@H]1[C@H](O)CC(=O)[C@@H]1C/C=C\CCCC(=O)O [PGE2, prostaglandin E2]
Sensory neglect (adhesive tape removal task) behavioral deficits [1, 5]: no effect | Spatial neglect (corner task) behavioral deficits [1, 5]: no effect

CC(c1cc2ccccc2s1)N(O)C(N)=O (centres unmarked) [Zileuton]
Inhibition of ALOX5 activity (recombinant ALOX5): effective in inhibiting ALOX5 | EC50 (primary cortical neurons; Mus musculus, Primary cortical neuron, 100 μM hemin, primary cortical neurons, read-out: EC50 for reduction of hemin-induced toxicity/ferroptosis): 7 µM | AA-protein adduct formation (lipid protein adducts): did not decrease AA-protein adduct formation | Lipid protein adduct formation (lipid protein adducts): decreased lipid protein adduct formation

CCCCC(C)(C)[C@H](O)/C=C/[C@H]1[C@H](O)CC(=O)[C@@H]1C/C=C\CCCC(=O)O [dmPGE2, 16,16-dimethyl PGE2]
Protection against hemin-induced toxicity (in words) (primary cortical neurons; [2]): dose-dependently abrogated hemin-induced toxicity | Neuronal degeneration in perihematomal regions (Fluoro-Jade staining) ([1]; NAC 40 mg/kg i.p. daily 7 days and/or dmPGE2 10 μM ICV 2 h post-injury): no significant effect

Cc1c(C)c2c(c(C)c1O)CCC(C)(C(=O)O)O2 (centres unmarked) [trolox, 6-hydroxy-2,5,7,8-tetramethylchroman-2-carboxylic acid]
Protection against hemin-induced toxicity (in words) (primary cortical neurons; [2]): abrogated hemin-induced toxicity in a dose-dependent manner

Cc1c(C)c2c(c(C)c1O)CC[C@@](C)(CCC[C@H](C)CCC[C@H](C)CCCC(C)C)O2 [vitamin E, α-tocopherol]
AA-protein adduct formation (lipid protein adducts): did not decrease AA-protein adduct formation | Lipid protein adduct formation (lipid protein adducts): decreased lipid protein adduct formation

O=C(O)CCCCC1CCSS1 (stereo not drawn) [α-Lipoic acid, α-lipoic acid]
Protection against hemin-induced toxicity (in words) (primary cortical neurons; [2]): failed to prevent hemin toxicity at any dose examined

CC1=C(/C=C/C(C)=C/C=C/C(C)=C/C=C/C=C(C)/C=C/C=C(C)/C=C/C2=C(C)CCCC2(C)C)C(C)(C)CCC1 [β-carotene]
Inhibition of ALOX5 activity (recombinant ALOX5): did not inhibit ALOX5 activity | Protection against hemin-induced toxicity (in words) (primary cortical neurons; [2]): protected against hemin-induced toxicity

Hemin
% Viability (primary cortical neurons): 50.14% | EC50 (primary cortical neurons; hemin itself (toxic stimulus), Table 2 EC50 column, read-out: EC50): 100 µM

Reference: US11963939B2, “Use of N-acetylcysteine to treat central nervous system disorders” (Neuronasal, Inc., priority 2017, dated 2024)
